Source: paper PMC2726771 (The Journal of neuroscience : the official journal of the …, 2009)

Assays:
Format in all cases: cell-based
α3β2 wt nAChR = α3β2 wt nAChR (Rattus norvegicus, UniProt P04757+P12390); settings: Hill coefficient
α3β2T150C nAChR = α3β2T150C nAChR (Rattus norvegicus, UniProt P04757+P12390, T176C)
α3β2S192C nAChR = α3β2S192C nAChR (Rattus norvegicus, UniProt P04757+P12390, S218C); settings: Hill coefficient
α3T115Cβ2 nAChR = α3T115Cβ2 nAChR (Rattus norvegicus, UniProt P04757+P12390, T142C)
Chain of α3T115Cβ2 nAChR (P04757 26-499 T142C): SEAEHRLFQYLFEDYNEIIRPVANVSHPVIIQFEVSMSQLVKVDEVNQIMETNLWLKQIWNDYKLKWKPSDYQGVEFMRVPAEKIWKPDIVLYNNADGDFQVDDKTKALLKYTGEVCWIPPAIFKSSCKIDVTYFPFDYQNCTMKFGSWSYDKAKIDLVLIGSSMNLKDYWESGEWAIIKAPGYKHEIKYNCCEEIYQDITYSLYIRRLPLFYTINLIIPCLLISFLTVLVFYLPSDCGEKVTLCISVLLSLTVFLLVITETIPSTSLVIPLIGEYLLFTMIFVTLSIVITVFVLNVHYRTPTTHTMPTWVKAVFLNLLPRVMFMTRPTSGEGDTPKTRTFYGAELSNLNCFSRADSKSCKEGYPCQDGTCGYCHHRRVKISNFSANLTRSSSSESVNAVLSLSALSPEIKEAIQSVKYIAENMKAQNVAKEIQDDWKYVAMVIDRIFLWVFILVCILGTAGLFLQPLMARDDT
Chain of α3T115Cβ2 nAChR (P12390 25-500): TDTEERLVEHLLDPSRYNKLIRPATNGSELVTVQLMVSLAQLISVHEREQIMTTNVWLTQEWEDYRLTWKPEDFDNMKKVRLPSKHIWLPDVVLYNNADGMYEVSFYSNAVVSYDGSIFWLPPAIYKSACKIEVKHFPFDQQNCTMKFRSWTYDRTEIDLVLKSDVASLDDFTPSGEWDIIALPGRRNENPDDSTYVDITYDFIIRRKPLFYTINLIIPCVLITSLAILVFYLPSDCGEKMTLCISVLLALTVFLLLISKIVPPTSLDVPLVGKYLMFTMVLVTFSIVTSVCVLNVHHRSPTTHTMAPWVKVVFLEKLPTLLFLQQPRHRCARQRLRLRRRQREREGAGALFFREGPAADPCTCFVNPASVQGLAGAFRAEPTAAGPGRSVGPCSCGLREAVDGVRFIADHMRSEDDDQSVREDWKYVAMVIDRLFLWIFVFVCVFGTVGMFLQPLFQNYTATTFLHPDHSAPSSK

α3A106Cβ2 nAChR = α3A106Cβ2 nAChR (Rattus norvegicus, UniProt P04757+P12390, A133C); settings: Hill coefficient
Chain of α3A106Cβ2 nAChR (P04757 26-499 A133C): as the sequence (P04757 26-499 T142C) above, with A108C, C117T counted along it
Chain of α3A106Cβ2 nAChR (P12390 25-500): as the sequence (P12390 25-500) above

α3β2S148C nAChR = α3β2S148C nAChR (Rattus norvegicus, UniProt P04757+P12390, S174C); settings: Hill coefficient
Chain of α3β2S148C nAChR (P04757 26-499): as the sequence (P04757 26-499 T142C) above, with C117T counted along it
Chain of α3β2S148C nAChR (P12390 25-500 S174C): as the sequence (P12390 25-500) above, with S150C counted along it

α3β2T193C nAChR = α3β2T193C nAChR (Rattus norvegicus, UniProt P04757+P12390, T219C); settings: Hill coefficient
Chain of α3β2T193C nAChR (P04757 26-499): as the sequence (P04757 26-499 T142C) above, with C117T counted along it
Chain of α3β2T193C nAChR (P12390 25-500 T219C): as the sequence (P12390 25-500) above, with T195C counted along it

α3S161Cβ2 nAChR = α3S161Cβ2 nAChR (Rattus norvegicus, UniProt P04757+P12390, S188C); settings: Hill coefficient
Chain of α3S161Cβ2 nAChR (P04757 26-499 S188C): as the sequence (P04757 26-499 T142C) above, with C117T, S163C counted along it
Chain of α3S161Cβ2 nAChR (P12390 25-500, stated change not applied): as the sequence (P12390 25-500) above

[1] = after 100 μM reagent, four 30-sec doses

Chain of α3β2T150C nAChR (P04757 26-499): as the sequence (P04757 26-499 T142C) above, with C117T counted along it
Chain of α3β2T150C nAChR (P12390 25-500 T176C): as the sequence (P12390 25-500) above, with T152C counted along it
Chain of α3β2 wt nAChR (P04757 26-499): as the sequence (P04757 26-499 T142C) above, with C117T counted along it
Chain of α3β2 wt nAChR (P12390 25-500): as the sequence (P12390 25-500) above
Chain of α3β2S192C nAChR (P04757 26-499): as the sequence (P04757 26-499 T142C) above, with C117T counted along it
Chain of α3β2S192C nAChR (P12390 25-500 S218C): as the sequence (P12390 25-500) above, with S194C counted along it

## CC(=O)OCC[N+](C)(C)C [ACh]
α3β2 wt nAChR
  ACh Response nH: 0.82 ± 0.06
α3β2T150C nAChR; ACh + 10 μM Mor
  ACh nH, +Mor data set, pre-treatment: 1.13 ± 0.24
α3β2T150C nAChR; ACh + 10 μM Mor, after 100 μM MTSET + 200 μM ACh
  ACh nH, +Mor data set, post-treatment: 0.98 ± 0.02
α3β2T150C nAChR; ACh + 10 μM Mor, normalized to ACh response at 1000 μM
  ACh Emax, +Mor data set, pre-treatment: 1.33 ± 0.05
α3β2T150C nAChR; Hill coefficient, pre-treatment in Fig. 4
  ACh Response nH: 0.84 ± 0.06
α3β2T150C nAChR; after 100 μM MTSET + 200 μM ACh
  ACh nH post-treatment: 0.79 ± 0.11
α3β2T150C nAChR; after 100 μM MTSET + 200 μM ACh, normalized to ACh response at 1000 μM
  ACh Emax post-treatment: 0.26 ± 0.01
α3β2T150C nAChR; normalized to ACh response at 1000 μM
  ACh Emax pre-treatment: 1.00
α3β2S192C nAChR
  ACh Response nH: 0.57 ± 0.05
α3T115Cβ2 nAChR; Hill coefficient
  ACh Response nH: 0.96 ± 0.09
α3A106Cβ2 nAChR
  ACh Response nH: 0.64 ± 0.04
α3β2S148C nAChR
  ACh Response nH: 0.79 ± 0.08
α3β2T193C nAChR
  ACh Response nH: 0.74 ± 0.07
α3S161Cβ2 nAChR
  ACh Response nH: 0.77 ± 0.07

## C[N+](C)(C)CCOC(=O)CBr [BrACh]
α3β2T150C nAChR; [1]
  reduction of maximum Mor-evoked current (efficacy): very little effect

## CS(=O)(=O)SCc1ccccc1 [MTSBn, benzylmethanethiosulfonate]
α3β2T150C nAChR; [1]
  decrease of Mor potency: 4 fold
  reduction of maximum Mor-evoked current (efficacy): 45%
α3T115Cβ2 nAChR; after 100 μM MTS reagent alone
  potentiation post/pre: 0.99 ± 0.10
  reduction of ACh-evoked currents: 29 ± 9%
  reduction of ACh/Mor-evoked currents: 30 ± 10%
